# Key:
# L1210 [1] = test: Antitumor activity against mouse L1210 cells […] in ip dosed C3H X DBA2 F1 hybrid mouse on day 0 and dosed at LD10 level once daily on days 1 to 5 assessed as increase in life span relative to control; type: functional
# Mus musculus = test: Toxicity in ip dosed C3H X DBA2 F1 hybrid mouse […] with mouse L1210 cells on day 0 and dosed once daily on days 1 to 5 measured after 50 days; type: organism-based; conditions: in vivo, 1200 h
# [2] = Lipophilic-hydrophilic balance, Rm of the compound by partition chromatography; type: physicochemical
# L1210 [3] = test: Antitumor activity against mouse L1210 cells […] in ip dosed C3H X DBA2 F1 hybrid mouse on day 0 and dosed once daily on days 1 to 5 assessed as increase in life span relative to control; type: functional
SMILES,log(ILSmax) (L1210 [1]),LD10 (Mus musculus),Rm [2],D40 (L1210 [3])
C[n+]1ccc(Nc2ccc(NC(=O)c3ccc(C(=O)Nc4ccc(C(=O)Nc5ccc[n+](C)c5)cc4)cc3)cc2)cc1.Cc1ccc(S(=O)(=O)[O-])cc1.Cc1ccc(S(=O)(=O)[O-])cc1,2.03,9 mg/kg,0.07,0.8 mg/kg
CC[n+]1cccc2cc(NC(=O)/C=C/c3ccc(C(=O)Nc4ccc5c(ccc[n+]5CC)c4)cc3)ccc21.Cc1ccc(S(=O)(=O)[O-])cc1.Cc1ccc(S(=O)(=O)[O-])cc1,1.7,9 mg/kg,0.11,5 mg/kg
CCC[n+]1cccc2cc(NC(=O)COc3ccc(C(=O)Nc4ccc5c(ccc[n+]5CCC)c4)cc3)ccc21.Cc1ccc(S(=O)(=O)[O-])cc1.Cc1ccc(S(=O)(=O)[O-])cc1,1.59,8.3 mg/kg,0.15,6.3 mg/kg
CC[n+]1ccc(-c2ccc(-c3ccc(-c4ccc(NC(=O)c5ccc(C(=O)Nc6ccc(-c7ccc(-c8ccc(-c9cc[n+](CC)cc9)cc8)cc7)cc6)cc5)cc4)cc3)cc2)cc1.Cc1ccc(S(=O)(=O)[O-])cc1.Cc1ccc(S(=O)(=O)[O-])cc1,2.23,14 mg/kg,0.09,1.2 mg/kg
CCC[n+]1ccc(Nc2ccc(NC(=O)c3ccc(Nc4cc[n+](CCC)c5ccc(N)cc45)cc3N)cc2)cc1.[I-].[I-],2.03,20 mg/kg,0.52,5.9 mg/kg
CC[n+]1cccc(NC(=O)c2ccc(NC(=O)c3ccc(C(=O)Nc4ccc(C(=O)Nc5ccc[n+](CC)c5)c(N)c4)c(N)c3)cc2N)c1.Cc1ccc(S(=O)(=O)[O-])cc1.Cc1ccc(S(=O)(=O)[O-])cc1,2.29,14 mg/kg,-0.9,2.6 mg/kg
CC[n+]1ccc(Nc2ccc(C(=O)Nc3ccc(Nc4cc[n+](CC)c5ccc(N)cc45)cc3)cc2)cc1.[I-].[I-],2.23,9 mg/kg,0.19,0.7 mg/kg
C[n+]1ccc(Nc2ccc(NC(=O)c3ccc(Nc4cc[n+](C)c5cc(N)ccc45)cc3N)cc2)cc1.[Br-].[Br-],2.45,20 mg/kg,-0.12,1.2 mg/kg
CCC[n+]1cccc2cc(NC(=O)c3ccc(C(=O)Nc4ccc(NC(=O)c5ccc6c(ccc[n+]6CCC)c5)cc4)cc3)ccc21.Cc1ccc(S(=O)(=O)[O-])cc1.Cc1ccc(S(=O)(=O)[O-])cc1,2.08,80 mg/kg,0,60 mg/kg
CCCC[n+]1cccc2cc(NC(=O)/C=C/c3ccc(C(=O)Nc4ccc5c(ccc[n+]5CCCC)c4)cc3)ccc21.Cc1ccc(S(=O)(=O)[O-])cc1.Cc1ccc(S(=O)(=O)[O-])cc1,1.4,25 mg/kg,0.9,25 mg/kg
CCCCC[n+]1cccc2cc(NC(=O)c3ccc(C(=O)Nc4ccc5c(ccc[n+]5CCCCC)c4)c(N)c3)ccc21.Cc1ccc(S(=O)(=O)[O-])cc1.Cc1ccc(S(=O)(=O)[O-])cc1,1.51,16 mg/kg,0.85,15 mg/kg
CCCC[n+]1cccc2cc(NC(=O)c3ccc(C(=O)Nc4ccc5c(ccc[n+]5CCCC)c4)cc3)ccc21.Cc1ccc(S(=O)(=O)[O-])cc1.Cc1ccc(S(=O)(=O)[O-])cc1,2.04,59 mg/kg,0.67,25 mg/kg
CC[n+]1cccc2ccc(NC(=O)c3ccc(NC(=O)c4ccc(C(=O)Nc5ccc6ccc[n+](CC)c6c5)cc4)cc3)cc21.Cc1ccc(S(=O)(=O)[O-])cc1.Cc1ccc(S(=O)(=O)[O-])cc1,2,30 mg/kg,-0.4,12 mg/kg
CC[n+]1cc(-c2ccc(NC(=O)/C=C/c3ccc(C(=O)Nc4ccc(-c5c[n+](CC)c(N)nc5N)cc4)cc3)cc2)c(N)nc1N.Cc1ccc(S(=O)(=O)[O-])cc1.Cc1ccc(S(=O)(=O)[O-])cc1,2.23,27 mg/kg,-0.35,5.1 mg/kg
CC[n+]1ccc(Nc2ccc(NC(=O)c3ccc(Nc4cc[n+](CC)c5ccccc45)cc3N)cc2)cc1.[I-].[I-],1.95,53 mg/kg,0.65,11.9 mg/kg
CC[n+]1ccc(Nc2ccc(NC(=O)c3ccc(C(=O)Nc4ccc(Nc5cc[n+](CC)cc5)cc4)cc3)cc2)cc1.Cc1ccc(S(=O)(=O)[O-])cc1.Cc1ccc(S(=O)(=O)[O-])cc1,2.24,2.5 mg/kg,0.46,0.5 mg/kg
CC[n+]1ccc(Nc2ccc(C(=O)Nc3ccc(/C(C)=N/NC(=N)N)cc3)c(N)c2)c2cc(N)ccc21.Cc1ccc(S(=O)(=O)O)cc1.Cc1ccc(S(=O)(=O)[O-])cc1,2.32,50 mg/kg,-0.2,6 mg/kg

SMILES,log(ILSmax) (L1210 [1]),LD10 (Mus musculus),Rm [2],D40 (L1210 [3])
CC[n+]1cccc(NC(=O)c2ccc(NC(=O)/C=C/c3ccc(C(=O)Nc4ccc(C(=O)Nc5ccc[n+](CC)c5)cc4)cc3)cc2)c1.Cc1ccc(S(=O)(=O)[O-])cc1.Cc1ccc(S(=O)(=O)[O-])cc1,1.88,55 mg/kg,-0.58,22 mg/kg
CC[n+]1cccc2cc(NC(=O)c3ccc(NC(=O)c4ccc(C(=O)Nc5ccc6c(ccc[n+]6CC)c5)cc4)cc3)ccc21.Cc1ccc(S(=O)(=O)[O-])cc1.Cc1ccc(S(=O)(=O)[O-])cc1,2.05,45 mg/kg,-0.52,13 mg/kg
CCC[n+]1cccc(-c2ccc(NC(=O)c3ccc(C(=O)Nc4ccc(-c5ccc(-c6ccc(-c7ccc[n+](CCC)c7)cc6)cc5)cc4)cc3)cc2)c1.Cc1ccc(S(=O)(=O)[O-])cc1.Cc1ccc(S(=O)(=O)[O-])cc1,2.16,59 mg/kg,-0.25,4 mg/kg
CCC[n+]1ccc(Nc2ccc(NC(=O)c3ccc(Nc4cc[n+](CCC)c5ccc(N)cc45)cc3)cc2N)cc1.[I-].[I-],1.95,10 mg/kg,0.41,3.6 mg/kg
CC[n+]1ccc(Nc2ccc(NC(=O)c3ccc(Nc4cc[n+](CC)c5ccc(N)cc45)cc3N)cc2)cc1.[I-].[I-],2.33,17 mg/kg,0.37,1.4 mg/kg
CC[n+]1cccc(-c2ccc(NC(=O)c3ccc(C(=O)Nc4ccc(-c5ccc(-c6ccc(-c7ccc[n+](CC)c7)cc6)cc5)cc4)cc3)cc2)c1.Cc1ccc(S(=O)(=O)[O-])cc1.Cc1ccc(S(=O)(=O)[O-])cc1,2.2,43 mg/kg,-0.44,5.6 mg/kg
CC[n+]1c(C)cc(Nc2ccc(NC(=O)c3ccc(C(=O)Nc4ccc(Nc5cc(C)[n+](CC)c(N)n5)cc4)cc3)cc2)nc1N.Cc1ccc(S(=O)(=O)[O-])cc1.Cc1ccc(S(=O)(=O)[O-])cc1,2.09,200 mg/kg,-0.4,69 mg/kg
CCC[n+]1ccc(-c2ccc(-c3ccc(-c4ccc(NC(=O)c5ccc(C(=O)Nc6ccc(-c7ccc(-c8ccc(-c9cc[n+](CCC)cc9)cc8)cc7)cc6)cc5)cc4)cc3)cc2)cc1.Cc1ccc(S(=O)(=O)[O-])cc1.Cc1ccc(S(=O)(=O)[O-])cc1,2.03,10 mg/kg,0.46,4.6 mg/kg
CC[n+]1cccc2cc(NC(=O)c3ccc(C(=O)Nc4ccc5c(ccc[n+]5CC)c4)cc3)ccc21.Cc1ccc(S(=O)(=O)[O-])cc1.Cc1ccc(S(=O)(=O)[O-])cc1,1.43,4 mg/kg,0.03,
CCC[n+]1cccc(NC(=O)c2ccc(NC(=O)C34CCC(C(=O)Nc5ccc(C(=O)Nc6ccc[n+](CCC)c6)cc5)(CC3)CC4)cc2)c1.Cc1ccc(S(=O)(=O)[O-])cc1.Cc1ccc(S(=O)(=O)[O-])cc1,1.54,30 mg/kg,0.86,
C[n+]1cccc2cc(NC(=O)c3ccc(C(=O)Nc4ccc5c(ccc[n+]5C)c4)nc3)ccc21.Cc1ccc(S(=O)(=O)[O-])cc1.Cc1ccc(S(=O)(=O)[O-])cc1,<1.4,4 mg/kg,-0.4,
CCCCC[n+]1cccc2cc(NC(=O)c3ccc(C(=O)Nc4ccc5c(ccc[n+]5CCCCC)c4)nc3)ccc21.Cc1ccc(S(=O)(=O)[O-])cc1.Cc1ccc(S(=O)(=O)[O-])cc1,<1.4,250 mg/kg,0.6,
CC[n+]1cccc(NC(=O)c2ccc(NC(=O)c3ccc(C(=O)Nc4ccc[n+](CC)c4)cc3)cc2)c1.Cc1ccc(S(=O)(=O)[O-])cc1.Cc1ccc(S(=O)(=O)[O-])cc1,<1.4,8 mg/kg,0.3,
C[n+]1cccc2cc(NC(=O)CCc3ccc(C(=O)Nc4ccc5c(ccc[n+]5C)c4)cc3)ccc21.Cc1ccc(S(=O)(=O)[O-])cc1.Cc1ccc(S(=O)(=O)[O-])cc1,<1.4,270 mg/kg,0.85,
CCC[n+]1ccccc1NC(=O)c1ccc(NC(=O)c2ccc(C(=O)Nc3ccc(C(=O)Nc4cccc[n+]4CCC)cc3)cc2)cc1.Cc1ccc(S(=O)(=O)[O-])cc1.Cc1ccc(S(=O)(=O)[O-])cc1,<1.4,100 mg/kg,0.73,
CCOCC[n+]1cccc2cc(NC(=O)c3ccc(C(=O)Nc4ccc5c(ccc[n+]5CCOCC)c4)cc3)ccc21.Cc1ccc(S(=O)(=O)[O-])cc1.Cc1ccc(S(=O)(=O)[O-])cc1,<1.4,20 mg/kg,0.8,

# Reference: ChEMBL document CHEMBL3228010, “Potential antitumor agents. 29. Quantitative structure-activity relationships for the antileukemic bisquaternary ammonium heterocycles” (J Med Chem, 1979)
